Experimental data reported in patent US20070128217A1 (priority 2003, published 2007).

Assays:
[1] = tested on: antibodies in sera from SARS patients (sera 1a, 1b, 2, 6, 37, 62, London, SARS-yellow, SARS-green); assay type: binding, human; set-up: Binding of serum 6 to linear peptides of protein X1 of SARS-CoV Urbani / Binding of serum 37 to linear peptides of protein X1 of SARS-CoV Urbani / Binding of serum 6 to looped/cyclic peptide (PEPSCAN-ELISA) / Binding of serum 37 to looped/cyclic peptide (PEPSCAN-ELISA) / Binding of serum 37 to looped/cyclic peptides of protein X1 of SARS-CoV Urbani / Binding of serum 6 to linear peptides of protein X2 / Binding of serum 37 to linear peptides of protein X2 / Binding of serum 37 to looped/cyclic peptides of protein X2 of SARS-CoV Urbani / Binding of serum 6 to linear peptides of protein M of SARS-CoV Urbani / Binding of serum 37 to linear peptides of protein M of SARS-CoV Urbani / Binding of serum 6 to looped/cyclic peptides of protein M of SARS-CoV Urbani / Binding of serum 37 to looped/cyclic peptides of protein M of SARS-CoV Urbani / Binding of serum 6 to linear peptides of protein X3 of SARS-CoV Urbani / Binding of serum 37 to linear peptides of protein X3 of SARS-CoV Urbani / Binding of serum 37 to looped/cyclic peptides of protein X3 of SARS-CoV Urbani / Binding of serum 6 to linear peptides of protein X4 of SARS-CoV Urbani / Binding of serum 37 to linear peptides of protein X4 of SARS-CoV Urbani / Binding of serum 37 to looped/cyclic peptides of protein X4 of SARS-CoV Urbani / Binding of serum 6 to linear peptides of protein X5 of SARS-CoV Urbani / Binding of serum 37 to linear peptides of protein X5 of SARS-CoV Urbani / Binding of serum 37 to looped/cyclic peptides of protein X5 of SARS-CoV Urbani / Binding of serum 6 to linear peptides of protein N of SARS-CoV Urbani / Binding of serum 37 to linear peptides of protein N of SARS-CoV Urbani / Binding of serum 6 to linear peptide (PEPSCAN-ELISA) / Binding of serum 1a to looped/cyclic peptides of protein N of SARS-CoV Urbani / Binding of serum 1b to looped/cyclic peptides of protein N of SARS-CoV Urbani / Binding of serum 2 to looped/cyclic peptides of protein N of SARS-CoV Urbani / Binding of serum 6 to looped/cyclic peptides of protein N of SARS-CoV Urbani / Binding of serum 37 to looped/cyclic peptides of protein N of SARS-CoV Urbani / Binding of serum 62 to looped/cyclic peptides of protein N of SARS-CoV Urbani / Binding of serum London to looped/cyclic peptides of protein N of SARS-CoV Urbani / Binding of serum SARS-green to looped/cyclic peptides of protein N of SARS-CoV Urbani: unit not given here
[2] = tested on: control sera (pooled serum of ten healthy LUMC hospital workers; commercial negative donor pooled serum from the Dutch bloodbank); assay type: binding, human; set-up: Binding of Control serum LUMC to linear peptides / Binding of Control serum Blood-bank to linear peptides / Binding of Control serum LUMC to looped peptides / Binding of Control Serum Blood-Bank to Looped peptides / Binding of Control serum LUMC to linear peptides of the protein M of SARS-CoV Urbani / Binding of Control serum Blood-bank to linear peptides of the protein M of SARS-CoV Urbani / Binding of Control serum LUMC to looped peptides of the protein M of SARS-CoV Urbani / Binding of Control Serum Blood-Bank to Looped peptides of the protein M of SARS-CoV Urbani: unit not given here
[3] = tested on: rabbit serum obtained by immunizing a rabbit with the SARS-CoV strain Frankfurt 1; assay type: binding; set-up: Binding of a rabbit serum to linear peptides / Binding of a rabbit serum to looped peptides / Rabbit serum linear peptides / Rabbit serum looped peptides / Binding of a rabbit serum to linear peptides of protein N of SARS-CoV Urbani (Rabbit serum linear peptides) / Binding of a rabbit serum to looped/cyclic peptides of protein N of SARS-CoV Urbani (Rabbit serum looped peptides): unit not given here
[4] = tested on: recombinant human anti-SARS-CoV antibody 03-018; assay type: binding; set-up: Binding of antibody 03-018 to linear peptides of the N protein of SARS-CoV Urbani / Binding of antibody 03-018 to looped/cyclic peptides of the N protein of SARS-CoV Urbani: unit not given here

Row | Sequence | Binding of serum 1a to looped/cyclic peptides of protein N of SARS-CoV Urbani [1] | Binding of serum 1b to looped/cyclic peptides of protein N of SARS-CoV Urbani [1] | Binding of serum 2 to looped/cyclic peptides of protein N of SARS-CoV Urbani [1] | Binding of serum 6 to looped/cyclic peptides of protein N of SARS-CoV Urbani [1] | Binding of serum 37 to looped/cyclic peptides of protein N of SARS-CoV Urbani [1] | Binding of serum 62 to looped/cyclic peptides of protein N of SARS-CoV Urbani [1] | Binding of serum London to looped/cyclic peptides of protein N of SARS-CoV Urbani [1] | Binding of serum SARS-green to looped/cyclic peptides of protein N of SARS-CoV Urbani [1] | Binding of serum SARS-yellow to looped/cyclic peptides of protein N of SARS-CoV Urbani [1] | Binding of Control Serum Blood-Bank to Looped peptides [2] | Binding of Control serum Blood-bank to linear peptides [2] | Binding of Control serum LUMC to linear peptides [2] | Binding of Control serum LUMC to looped peptides [2] | Binding of a rabbit serum to linear peptides of protein N of SARS-CoV Urbani (Rabbit serum linear peptides) [3] | Binding of a rabbit serum to looped/cyclic peptides of protein N of SARS-CoV Urbani (Rabbit serum looped peptides) [3] | Binding of antibody 03-018 to linear peptides of the N protein of SARS-CoV Urbani [4] | Binding of antibody 03-018 to looped/cyclic peptides of the N protein of SARS-CoV Urbani [4] | other results
1 | DQDLIRQGTDYKHWP | 0.2 | 0.1 | 0.3 | 0.1 | 0.4 | 0.3 | 0.3 | 0.1 | 0.1 | 0.4 | 0.8 | 0.7 | 0.4 | 0.1 | 0.1 | 0.1 | 0.2 | Binding of serum 1a to linear peptide (PEPSCAN-ELISA) [1]: 0.3; Binding of serum 1b to linear peptide (PEPSCAN-ELISA) [1]: 0.1; Binding of serum 2 to linear peptide (PEPSCAN-ELISA) [1]: 0.2; Binding of serum 6 to linear peptide (PEPSCAN-ELISA) [1]: 0.2; Binding of serum 37 to linear peptide (PEPSCAN-ELISA) [1]: 0.7; Binding of serum 62 to linear peptide (PEPSCAN-ELISA) [1]: 0.6; Binding of serum London to linear peptide (PEPSCAN-ELISA) [1]: 0.8; Binding of serum SARS-green to linear peptide (PEPSCAN-ELISA) [1]: 0.5; Binding of serum SARS-yellow to linear peptide (PEPSCAN-ELISA) [1]: 0.7
2 | GYYRRATRRVRGGDG | 0.3 | 0.1 | 0.4 | 0.2 | 0.5 | 0.4 | 0.3 | 0.2 | 0.2 | 0.6 | 0.6 | 0.6 | 0.5 | – | – | 0.1 | 0.2 | Binding of serum 1a to linear peptides of protein N of SARS-CoV Urbani [1]: 0.3; Binding of serum 1b to linear peptides of protein N of SARS-CoV Urbani [1]: 0.1; Binding of serum 2 to linear peptides of protein N of SARS-CoV Urbani [1]: 0.1; Binding of serum 6 to linear peptides of protein N of SARS-CoV Urbani [1]: 0.2; Binding of serum 37 to linear peptides of protein N of SARS-CoV Urbani [1]: 0.3; Binding of serum 62 to linear peptides of protein N of SARS-CoV Urbani [1]: 0.4; Binding of serum London to linear peptides of protein N of SARS-CoV Urbani [1]: 0.4; Binding of serum SARS-green to linear peptides of protein N of SARS-CoV Urbani [1]: 0.2; Binding of serum SARS-yellow to linear peptides of protein N of SARS-CoV Urbani [1]: 0.6; Recognition of the peptide by the rabbit serum [3]: recognized
3 | TVTKKSAAEASKKPR | 0.2 | 0.1 | 0.2 | 0.1 | 0.5 | 0.3 | 0.3 | 0.0 | 0.2 | 0.4 | 1.0 | 1.0 | 0.3 | 0.2 | 0.5 | 0.1 | 0.2 | Recognition of the peptide by sera of SARS-CoV infected individuals, and form (linear, looped/cyclic) in which it is recognized [1]: recognized in linear form
